In US20220152004A1, “HETEROCYCLYL(PHENYL)METHANOL COMPOUNDS USEFUL IN THE TREATMENT OF HYPERGLYCAEMIA” (ATROGI AB, priority 2019, published 2022):
Where a name gives a salt, the structure may show the parent alone.

Legend:
[1] = test system: L6-myotubes; test: Glucose uptake (3H-2-deoxy-glucose) in differentiated L6-myotubes; assay type: cell-based; details: agonist final concentration 1×10^−5; for Biological example 3: Table 2, glucose uptake assay of Biological Example 1; for Emax at 10 µM: differentiated L6-myotubes, Table 1, read-out: Biological example 1 (glucose uptake, activity compared to that of isoproterenol)
Method: (§1) L6-myoblasts were grown in Dulbecco's Modified Eagle's Medium (DMEM) containing 4.5 g/l glucose supplemented with 10% fetal bovine serum, 2 mM L-Glutamine, 50 U/ml penicillin, 50 μg/ml streptomycin and 10 mM HEPES. Cells were plated at 1×10^5 cells per ml in 24-well plates. After reaching 90% confluence the cells were grown in medium containing 2% FBS for 7 days where upon cells differentiated into myotubes.
Differentiated L6-myotubes were serum-starved overnight in medium containing 0,5% fatty-acid free BSA and stimulated with agonist, final concentration 1×10^−5. After 1 h 40 min cells were washed with warm, glucose free medium or PBS and another portion of agonist was added to glucose free medium. After 20 min the cells were exposed to 50 nM ^3H-2-deoxy-glucose for another 10 min before washed in ice cold glucose free medium or PBS and lysed in 0.2 M NaOH for 1 h in 60° C.

[2] = test system: L6-myotubes; test: Measurement of intracellular cAMP levels in differentiated L6-myotubes; assay type: cell-based; details: for Biological example 4: Table 2, cAMP assay of Biological Example 2, agonist final concentration 1×10^−5; for Emax at 10 µM: 0.25 h, agonist final concentration 1×10^−5, 15 min, differentiated cells, Table 1, read-out: Biological example 2 (intracellular cAMP levels, activity compared to that of isoproterenol)
Method: as §1
Differentiated cells were serum-starved overnight and stimulated with agonist, final concentration 1×10^−5, for 15 min in stimulation buffer (HBSS supplemented with 1% BSA, 5 mM HEPES and 1 mM IBMX, pH 7,4) The medium was then aspirated and to end the reaction 100 μL of 95% EtOH was added to each well of a 24-well plate and cells were kept in −20° C. over night. The EtOH was let to evaporate and 500 μL of lysis buffer (1% BSA, 5 mM HEPES and 0,3% Tween-20, pH 7,4) was added to each well before put in −80° C. for 30 min and then kept in −20° C. Intracellular cAMP levels were detected using an alpha screen cAMP kit (6760635D from Perkin Elmer). The activity for each compound is compared to that of isoproterenol.

Structure (SMILES): CC1(C)C[C@@H]([C@@H](O)c2cccc(F)c2)N1.Cl [Example 40, (S)-((S)-4,4-dimethylazetidin-2-yl)(3-fluorophenyl)methanol hydrochloride]
- Biological example 3 [1]: + (between 50 and 25%)
- Biological example 4 [2]: − (less than 25%)

Structure (SMILES): CC1(C)C[C@H]([C@H](O)c2cccc(Cl)c2)N1.O=C(O)/C=C\C(=O)O [Example 45, (R)-(3-chlorophenyl)((R)-4,4-dimethylazetidin-2-yl)methanol maleate]
- Biological example 3 [1]: +++ (more than 75% of that of isoproterenol)
- Biological example 4 [2]: − (less than 25%)

Structure (SMILES): CC1(C)CC[C@H]([C@H](O)c2cccc(O)c2)N1 [Example 15, (R)-((R)-5,5-Dimethylpyrrolidin-2-yl)(hydroxy)methyl)phenol acetate]
- Emax at 10 µM [1]: > 75%
- Emax at 10 µM [2]: < 25%

Structure (SMILES): CC1(C)CCC[C@H]([C@H](O)c2ccccc2Cl)N1 [Example 5, (R)-(2-Chlorophenyl)((R)-6,6-dimethylpiperidin-2-yl)methanol hydrochloride]
- Emax at 10 µM [1]: 25 to 50%
- Emax at 10 µM [2]: < 25%

Structure (SMILES): CC1(C)CC[C@H]([C@@H](O)c2ccccc2Cl)N1 [Example 24, (S)-(2-Chlorophenyl)((R)-5,5-dimethylpyrrolidin-2-yl)methanol hydrochloride]
- Emax at 10 µM [1]: < 25%
- Emax at 10 µM [2]: < 25%

Structure (SMILES): CC1(C)C[C@@H]([C@H](O)c2ccccc2F)N1.Cl [Example 37, (R)-((S)-4,4-dimethylazetidin-2-yl)(2-fluorophenyl)methanol hydrochloride]
- Biological example 3 [1]: − (less than 25%)
- Biological example 4 [2]: − (less than 25%)

Structure (SMILES): CC1(C)CC[C@@H]([C@@H](O)c2cccc(F)c2)N1 [Example 14, (S)-((S)-5,5-Dimethylpyrrolidin-2-yl)(3-fluorophenyl)methanol hydrochloride]
- Emax at 10 µM [1]: 25 to 50%
- Emax at 10 µM [2]: < 25%

Structure (SMILES): CC1(C)CC[C@H]([C@H](O)c2cccc(F)c2)N1 [Example 11, (R)-((R)-5,5-Dimethylpyrrolidin-2-yl)(3-fluorophenyl)methanol hydrochloride]
- Emax at 10 µM [1]: > 75%
- Emax at 10 µM [2]: < 25%

Structure (SMILES): O[C@@H](c1cccc(F)c1)[C@H]1CCC2(CC2)N1 [Example 30, (S)-(3-Fluorophenyl)((R)-4-azaspiro[2.4]heptan-5-yl)methanol hydrochloride]
- Emax at 10 µM [1]: 25 to 50%
- Emax at 10 µM [2]: < 25%

Structure (SMILES): CC1(C)CC[C@H]([C@H](O)c2cccc(N)c2F)N1.Cl [Example 49, (R)-(3-amino-2-fluorophenyl)((R)-5,5-dimethylpyrrolidin-2-yl)methanol hydrochloride]
- Biological example 3 [1]: +++ (more than 75% of that of isoproterenol)
- Biological example 4 [2]: − (less than 25%)

Structure (SMILES): CC1(C)CCC[C@@H]([C@H](O)c2cccc(F)c2)N1.Cl [Example 44, (R)-((S)-6,6-dimethylpiperidin-2-yl)(3-fluorophenyl)methanol hydrochloride]
- Biological example 3 [1]: ++ (between 75 and 50%)
- Biological example 4 [2]: − (less than 25%)

Structure (SMILES): CC1(C)C[C@@H]([C@H](O)c2cccc(F)c2)N1.Cl [Example 39, (R)-((S)-4,4-dimethylazetidin-2-yl)(3-fluorophenyl)methanol hydrochloride]
- Biological example 3 [1]: − (less than 25%)
- Biological example 4 [2]: − (less than 25%)

Structure (SMILES): CC1(C)C[C@@H]([C@@H](O)c2ccccc2F)N1.Cl [Example 34, (S)-((S)-4,4-dimethylazetidin-2-yl)(2-fluorophenyl)methanol hydrochloride]
- Biological example 3 [1]: + (between 50 and 25%)
- Biological example 4 [2]: − (less than 25%)

Structure (SMILES): CC1(C)CC[C@H]([C@H](O)c2ccc(F)cc2)N1 [Example 21, (R)-((R)-5,5-Dimethylpyrrolidin-2-yl)(4-fluorophenyl)methanol hydrochloride]
- Emax at 10 µM [1]: 50 to 75%
- Emax at 10 µM [2]: < 25%

Structure (SMILES): CC1(C)CCC[C@@H]([C@@H](O)c2cccc(F)c2)N1.Cl [Example 43, (S)-((S)-6,6-dimethylpiperidin-2-yl)(3-fluorophenyl)methanol hydrochloride]
- Biological example 3 [1]: + (between 50 and 25%)
- Biological example 4 [2]: − (less than 25%)

Structure (SMILES): O[C@H](c1cccc(F)c1)[C@H]1CCC2(CC2)N1 [Example 29, (R)-(3-Fluorophenyl)((R)-4-azaspiro[2.4]heptan-5-yl)methanol hydrochloride]
- Emax at 10 µM [1]: 50 to 75%
- Emax at 10 µM [2]: < 25%

Structure (SMILES): CCCC1(CCC)CC[C@H]([C@@H](O)c2cccc(F)c2)N1 [Example 28, (S)-((R)-5,5-Dipropylpyrrolidin-2-yl)(3-fluorophenyl)methanol hydrochloride]
- Emax at 10 µM [1]: < 25%
- Emax at 10 µM [2]: < 25%

Structure (SMILES): CC1(C)CCC[C@H]([C@H](O)c2cccc(Cl)c2)N1 [Example 7, hydrochloride]
- Emax at 10 µM [1]: 25 to 50%
- Emax at 10 µM [2]: < 25%

Structure (SMILES): CC1(C)CC[C@H]([C@@H](O)c2cccc(F)c2)N1 [Example 12, (S)-((R)-5,5-Dimethylpyrrolidin-2-yl)(3-fluorophenyl)methanol hydrochloride]
- Emax at 10 µM [1]: 25 to 50%
- Emax at 10 µM [2]: < 25%

Structure (SMILES): CC1(C)CCC[C@H]([C@@H](O)c2ccccc2F)N1 [Example 10, (S)-((R)-6,6-Dimethylpiperidin-2-yl)(2-fluorophenyl)methanol hydrochloride]
- Emax at 10 µM [1]: > 75%
- Emax at 10 µM [2]: 25 to 50%

Structure (SMILES): CC1(C)CC[C@H]([C@H](O)c2ccccc2F)N1 [Example 19, (R)-((R)-5,5-Dimethylpyrrolidin-2-yl)(2-fluorophenyl)methanol hydrochloride]
- Emax at 10 µM [1]: > 75%
- Emax at 10 µM [2]: < 25%

Structure (SMILES): CC1(C)CCC[C@@H]([C@H](O)c2ccccc2F)N1.Cl [Example 41, (R)-((S)-6,6-dimethylpiperidin-2-yl)(2-fluorophenyl)methanol hydrochloride]
- Biological example 3 [1]: +++ (more than 75% of that of isoproterenol)
- Biological example 4 [2]: + (between 50 and 25%)

Structure (SMILES): CC1(C)CC[C@@H]([C@H](O)c2cccc(F)c2)N1 [Example 13, (R)-((S)-5,5-Dimethylpyrrolidin-2-yl)(3-fluorophenyl)methanol hydrochloride]
- Emax at 10 µM [1]: < 25%
- Emax at 10 µM [2]: < 25%

Structure (SMILES): CC1(C)CCC[C@@H]([C@@H](O)c2ccccc2F)N1.Cl [Example 42, (S)-((S)-6,6-dimethylpiperidin-2-yl)(2-fluorophenyl)methanol hydrochloride]
- Biological example 3 [1]: + (between 50 and 25%)
- Biological example 4 [2]: − (less than 25%)

Structure (SMILES): CC1(C)CCC[C@H]([C@@H](O)c2cccc(O)c2)N1 [Example 4, 3-((S)-((R)-6,6-Dimethylpiperidin-2-yl)(hydroxy)methyl)phenol acetate]
- Emax at 10 µM [1]: 25 to 50%
- Emax at 10 µM [2]: < 25%

Structure (SMILES): O[C@@H](c1cccc(F)c1)[C@H]1CCC2(CCCC2)N1 [Example 32, (S)-(3-Fluorophenyl)((R)-1-azaspiro[4.4]nonan-2-yl)methanol maleate]
- Emax at 10 µM [1]: < 25%
- Emax at 10 µM [2]: < 25%

Structure (SMILES): CC1(C)CCC[C@H]([C@H](O)c2cccc(O)c2)N1 [Example 3, 3-((R)-((R)-6,6-Dimethylpiperidin-2-yl)(hydroxy)methyl)phenol acetate]
- Emax at 10 µM [1]: 25 to 50%
- Emax at 10 µM [2]: < 25%

Structure (SMILES): CC1(C)CCC[C@H]([C@H](O)c2cccc(F)c2)N1 [Example 1, (R)-((R)-6,6-Dimethylpiperidin-2-yl)(3-fluorophenyl)methanol]
- Emax at 10 µM [1]: 50 to 75%
- Emax at 10 µM [2]: < 25%

Structure (SMILES): CC1(C)C[C@H]([C@H](O)c2cccc(F)c2)N1.Cl [Example 33, (R)-((R)-4,4-dimethylazetidin-2-yl)(3-fluorophenyl)methanol hydrochloride]
- Biological example 3 [1]: +++ (more than 75% of that of isoproterenol)
- Biological example 4 [2]: ++ (between 75 and 50%)

Structure (SMILES): CC1(C)CC[C@H]([C@H](O)c2cccc(Cl)c2)N1 [Example 25, (R)-(3-Chlorophenyl)((R)-5,5-dimethylpyrrolidin-2-yl)methanol hydrochloride]
- Emax at 10 µM [1]: > 75%
- Emax at 10 µM [2]: < 25%

Structure (SMILES): CC1(C)C[C@H]([C@@H](O)c2ccccc2F)N1.Cl [Example 36, (S)-((R)-4,4-dimethylazetidin-2-yl)(2-fluorophenyl)methanol hydrochloride]
- Biological example 3 [1]: + (between 50 and 25%)
- Biological example 4 [2]: − (less than 25%)

Structure (SMILES): CC1(C)C[C@@H]([C@@H](O)c2cccc(Cl)c2)N1.O=C(O)/C=C\C(=O)O [Example 48, (S)-(3-chlorophenyl)((S)-4,4-dimethylazetidin-2-yl)methanol maleate]
- Biological example 3 [1]: + (between 50 and 25%)
- Biological example 4 [2]: − (less than 25%)
